Measured values reported in BigSolDB 2.1.

CNC(=O)NC
solubility (mole fraction)
Conditions	288.15 K	293.15 K	298.15 K	303.15 K	308.15 K	313.15 K	318.15 K	323.15 K	328.15 K
in acetone	0.129	0.152	0.177	0.202	0.228	0.261	0.301	0.339	0.376
in acetonitrile	0.102	0.128	0.151	0.186	0.216	0.25	0.282	0.322	0.363
in ethyl acetate	0.0302	0.0421	0.0608	0.0825	0.111	0.14	0.175	0.22	0.271
in isopropanol	0.331	0.352	0.372	0.39	0.416	0.438	0.471	0.5	0.533
in n-butyl acetate	0.0137	0.0205	0.0296	0.0408	0.0602	0.0834	0.111	0.148	0.195
in sec-butanol	0.325	0.353	0.381	0.412	0.438	0.46	0.494	0.523	0.561
in water	0.362	0.38	0.405	0.436	0.464	0.494	0.533	0.57	0.601
